15 molecules from patent US20230115945A1, “AMINOPYRIMIDINE COMPOUNDS” (TYRA BIOSCIENCES, INC., priority 2019, published 2023) can be followed below.

One test concerns the target T1, FGFR1 (Homo sapiens, UniProt P11362).
T1 construct: made in house; host or cells: E. coli host derived from BL21, infected with T7 phage
In words: Kinase binding assay (Kd), FGFR1. The conditions noted are these: 11-point 3-fold dilution, qPCR readout. Summed up: (§1)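 Competition binding, phage-tagged kinase vs. bead-bound ligand; 11-pt 3-fold cpd series, 0.9% DMSO final; 1 h RT shaking; eluate kinase by qPCR; Kd via Hill fit (slope −1, Levenberg–Marquardt).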
A general note: In qPCR the cycle at which signal appears reflects the starting amount.

In a further test the target is T2, FGFR2 (Homo sapiens, UniProt P21802).
T2 construct: made in house; host or cells: E. coli host derived from BL21, infected with T7 phage
T2 sequence (P21802 22-821): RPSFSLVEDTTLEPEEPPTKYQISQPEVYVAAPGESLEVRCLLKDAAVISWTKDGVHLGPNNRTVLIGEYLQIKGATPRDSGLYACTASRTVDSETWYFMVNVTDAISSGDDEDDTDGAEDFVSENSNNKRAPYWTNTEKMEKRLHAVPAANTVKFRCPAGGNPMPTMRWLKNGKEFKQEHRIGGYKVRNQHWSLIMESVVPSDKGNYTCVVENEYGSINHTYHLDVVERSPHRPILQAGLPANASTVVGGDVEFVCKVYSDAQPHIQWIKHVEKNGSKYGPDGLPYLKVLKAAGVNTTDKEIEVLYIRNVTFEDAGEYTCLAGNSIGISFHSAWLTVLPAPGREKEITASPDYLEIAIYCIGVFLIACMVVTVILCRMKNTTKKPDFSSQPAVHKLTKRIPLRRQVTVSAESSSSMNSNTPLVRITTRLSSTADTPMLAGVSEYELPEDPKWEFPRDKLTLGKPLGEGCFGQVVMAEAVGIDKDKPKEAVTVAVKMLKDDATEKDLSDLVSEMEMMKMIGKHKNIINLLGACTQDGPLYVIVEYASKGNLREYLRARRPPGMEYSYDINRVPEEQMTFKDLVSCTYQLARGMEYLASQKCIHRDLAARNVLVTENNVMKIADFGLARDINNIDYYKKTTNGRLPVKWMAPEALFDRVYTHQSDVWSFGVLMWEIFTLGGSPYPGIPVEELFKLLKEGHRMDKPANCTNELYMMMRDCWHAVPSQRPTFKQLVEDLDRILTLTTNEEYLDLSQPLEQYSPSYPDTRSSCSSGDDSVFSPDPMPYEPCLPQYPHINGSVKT
In words: Kinase binding assay (Kd), FGFR2. The conditions noted are these: 11-point 3-fold dilution, qPCR readout. Summed up:
as §1

In a further test the target is T3, FGFR3 (Homo sapiens, UniProt P22607).
T3 construct: made in house; host or cells: E. coli host derived from BL21, infected with T7 phage
T3 sequence (P22607 23-806): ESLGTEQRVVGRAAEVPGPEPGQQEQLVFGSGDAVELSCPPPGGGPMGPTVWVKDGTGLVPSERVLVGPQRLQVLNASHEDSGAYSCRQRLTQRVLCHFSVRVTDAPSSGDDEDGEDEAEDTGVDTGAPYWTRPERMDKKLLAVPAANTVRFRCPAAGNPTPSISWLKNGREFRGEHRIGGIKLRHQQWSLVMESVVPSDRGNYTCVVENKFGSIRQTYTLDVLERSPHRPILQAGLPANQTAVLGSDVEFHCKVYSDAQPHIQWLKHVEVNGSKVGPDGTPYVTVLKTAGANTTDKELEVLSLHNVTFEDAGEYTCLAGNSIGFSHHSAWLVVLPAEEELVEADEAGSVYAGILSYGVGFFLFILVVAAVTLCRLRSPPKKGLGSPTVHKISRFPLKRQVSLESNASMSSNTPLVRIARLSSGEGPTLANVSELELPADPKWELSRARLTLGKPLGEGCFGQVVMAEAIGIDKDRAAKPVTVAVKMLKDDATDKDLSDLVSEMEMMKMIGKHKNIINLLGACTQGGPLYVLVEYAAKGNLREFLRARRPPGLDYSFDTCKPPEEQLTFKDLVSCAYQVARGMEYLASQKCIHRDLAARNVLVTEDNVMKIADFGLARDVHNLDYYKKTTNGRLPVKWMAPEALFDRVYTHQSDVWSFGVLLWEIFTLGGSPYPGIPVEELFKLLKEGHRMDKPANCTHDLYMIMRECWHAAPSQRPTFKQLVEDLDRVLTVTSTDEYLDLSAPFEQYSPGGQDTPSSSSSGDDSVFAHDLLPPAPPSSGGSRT
The test can be described thus: Kinase binding assay (Kd), FGFR3. The conditions noted are these: 11-point 3-fold dilution, qPCR readout. A digest of the protocol:
as §1

A further test concerns the target T4, FGFR4 (Homo sapiens, UniProt P22455).
T4 construct: made in house; host or cells: E. coli host derived from BL21, infected with T7 phage
In words: Kinase binding assay (Kd), FGFR4. The settings on record: 11-point 3-fold dilution, qPCR readout. A digest of the protocol: as §1

Test [1] has as its system SNU-16 cells (Gastric Carcinoma, FGFR2 amplification). In words: Cancer cell line cell viability assay, SNU-16. The settings on record: Homo sapiens, 72 hours, Cell Titer-Glo 2.0, read-out: Cancer Cell Viability Assays SNU-16 (IC50 nM). The class given is cell-based. An excerpt:
(§2) [table] To detect the change of intracellular ATP by Cell Titer-Glo® and to evaluate the inhibitory effect of the compounds on cancer cell lines by determining the in vitro IC50 value of the compounds. Cell Titer-Glo® 2.0 Luminescent cell viability assay reagent was purchased from Promega (Madison, Wis.). RT112/84, SNU-16, and KG-1 cell lines were purchased from American Type Culture Collection (Manassas, Va.). UM-UC-14 cell line was purchased from Sigma (St. Louis, Mo.). RT112/84, UM-UC-14, SNU-16, and KG-1 cells were cultured in RPMI1640 media supplemented with 10% fetal bovine serum. Cultures were maintained at 37° C. in a humidified atmosphere of 5% CO2 and 95% air. Cell Viability Assay Procedure: Cells were plated in 96-well clear bottom/white plates (Corning #3903) at 10,000 cells/well in 100 μl of media, incubated overnight. The next day, test compound DMSO stock solutions were made at 10 mM and 2 μM final concentration. Compounds were then added to cells in a 9-dose, […] dilution series starting at 30 μM with an HP 300e Digital Dispenser (each dose was applied in triplicate). DMSO was backfilled to each well up to 301 nL total volume of test compound+DMSO, and a total of 301 nL DMSO was added to a control/no test compound well in triplicate. The cells in cell culture plates were incubated with the compounds at 37° C. and 5% CO2 for 72 hours. Then 50 μl of Cell Titer Glo 2.0 reagent was added to each well of the cell culture plates. The contents were covered from light and mixed on an orbital shaker at room temperature for 10 min. Luminescence was recorded by a Synergy H1 Microplate Reader (Biotek, Winooski, Vt.). Cells were assessed as a percentage of DMSO only treated control cells. Curves were plotted and IC50 values were calculated using the GraphPad Prism 8 program based on a sigmoidal dose-response equation (4 parameter).
For orientation: Cellular ATP, detected with luciferase, serves as a proxy for viable cell number.

The test system of test [2] is RT112/84 cells (Bladder Cancer, FGFR3-TACC3 fusion). The test can be described thus: Cancer cell line cell viability assay, RT112/84. The conditions noted are these: Homo sapiens, 72 hours, Cell Titer-Glo 2.0, read-out: Cancer Cell Viability Assays RT112/84 (IC50 nM). The format is cell-based.
Source text: as §2

In another test the target is T5, FGFR3 (V555M) (Homo sapiens, UniProt P22607, V555M).
T5 construct: made in house; host or cells: E. coli host derived from BL21, infected with T7 phage
T5 sequence (P22607 23-806 V555M): as the sequence (P22607 23-806) above, with V533M counted along it
In words: Kinase binding assay (Kd), FGFR3 (V555M). The settings on record: 11-point 3-fold dilution, qPCR readout. Summed up: as §1

T1 sequence (P11362 22-822): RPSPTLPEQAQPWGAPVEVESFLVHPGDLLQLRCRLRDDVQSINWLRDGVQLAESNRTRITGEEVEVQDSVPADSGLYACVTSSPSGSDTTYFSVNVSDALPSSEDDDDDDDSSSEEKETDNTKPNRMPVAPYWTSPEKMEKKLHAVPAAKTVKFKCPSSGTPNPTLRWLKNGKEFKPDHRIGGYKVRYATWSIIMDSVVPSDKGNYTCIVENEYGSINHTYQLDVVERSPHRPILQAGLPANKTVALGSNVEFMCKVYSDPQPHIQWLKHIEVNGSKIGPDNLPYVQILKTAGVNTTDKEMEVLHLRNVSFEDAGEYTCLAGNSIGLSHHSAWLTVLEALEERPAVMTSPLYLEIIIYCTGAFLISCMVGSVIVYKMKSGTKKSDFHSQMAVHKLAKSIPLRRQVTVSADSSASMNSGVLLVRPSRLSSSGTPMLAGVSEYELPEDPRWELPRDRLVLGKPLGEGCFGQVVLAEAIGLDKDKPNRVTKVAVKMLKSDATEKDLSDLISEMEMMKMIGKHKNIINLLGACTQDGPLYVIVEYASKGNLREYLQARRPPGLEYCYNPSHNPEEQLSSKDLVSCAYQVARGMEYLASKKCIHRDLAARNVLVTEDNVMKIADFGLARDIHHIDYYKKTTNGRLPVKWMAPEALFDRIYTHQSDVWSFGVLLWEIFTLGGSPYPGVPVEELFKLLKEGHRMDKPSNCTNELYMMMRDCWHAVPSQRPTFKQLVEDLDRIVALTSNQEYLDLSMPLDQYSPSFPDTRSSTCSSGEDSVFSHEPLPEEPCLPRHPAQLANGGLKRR
T4 sequence (P22455 22-802): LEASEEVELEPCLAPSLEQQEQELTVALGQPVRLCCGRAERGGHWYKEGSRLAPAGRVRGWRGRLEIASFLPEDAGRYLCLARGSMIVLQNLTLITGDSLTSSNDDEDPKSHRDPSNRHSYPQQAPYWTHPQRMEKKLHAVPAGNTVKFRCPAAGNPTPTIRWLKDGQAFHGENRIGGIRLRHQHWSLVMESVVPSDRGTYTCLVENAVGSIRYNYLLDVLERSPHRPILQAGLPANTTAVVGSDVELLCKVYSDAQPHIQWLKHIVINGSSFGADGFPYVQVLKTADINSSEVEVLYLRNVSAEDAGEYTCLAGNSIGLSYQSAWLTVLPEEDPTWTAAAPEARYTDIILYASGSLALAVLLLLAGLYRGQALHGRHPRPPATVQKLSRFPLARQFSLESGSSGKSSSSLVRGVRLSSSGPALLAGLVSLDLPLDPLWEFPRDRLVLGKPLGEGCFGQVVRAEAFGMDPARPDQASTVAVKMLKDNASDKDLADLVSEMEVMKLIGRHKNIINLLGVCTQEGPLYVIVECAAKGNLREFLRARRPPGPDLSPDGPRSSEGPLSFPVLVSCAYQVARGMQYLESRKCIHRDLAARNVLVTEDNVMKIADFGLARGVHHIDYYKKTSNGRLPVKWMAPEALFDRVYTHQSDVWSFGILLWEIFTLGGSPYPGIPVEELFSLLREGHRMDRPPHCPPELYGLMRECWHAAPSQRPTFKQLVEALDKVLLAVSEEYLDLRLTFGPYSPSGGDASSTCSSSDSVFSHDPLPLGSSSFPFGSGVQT

What is called Kd is the concentration at which binding is half-saturated. `CC(C)Oc1cc(N=S(C)(C)=O)ccc1Nc1ncc(Cl)c(-c2c[nH]c3ccccc23)n1` [Example 3, 5-chloro-N-[4-[[dimethyl(oxo)-λ^6-sulfanylidene]amino]-2-isopropoxy-phenyl]-4-(1H-indol-3-yl)pyrimidin-2-amine]: the Kd at FGFR1 came out at 4500 nM; on FGFR2, 11000 nM; on FGFR3 it was 4700 nM; on FGFR4, 290 nM. Also, the results for the IC50 in test [1] and in test [2] were 73 nM and 100 nM, respectively.

As to `Cc1cnc(Nc2ccc(N=S(C)(C)=O)nc2)nc1-c1c[nH]c2ccccc12` [Example 23, N-[6-[[dimethyl(oxo)-λ^6-sulfanylidene]amino]-3-pyridyl]-4-(1H-indol-3-yl)-5-methyl-pyrimidin-2-amine], the Kd at FGFR1 came to 8 nM; at FGFR2, 6 nM; on FGFR3, 12 nM; on FGFR3 (V555M), 1 nM; on FGFR4, 130 nM. The IC50 came to 132 nM in test [1] and 118 nM in test [2].

`Cc1cc(Nc2ncc(C)c(-c3c[nH]c4ccccc34)n2)ccc1N=S(C)(C)=O` [Example 24, N-[4-[[dimethyl(oxo)-λ^6-sulfanylidene]amino]-3-methyl-phenyl]-4-(1H-indol-3-yl)-5-methyl-pyrimidin-2-amine]: the Kd at FGFR1 amounted to 4 nM; at FGFR2, 7 nM; on FGFR3 it was 10 nM; at FGFR3 (V555M), 1 nM; on FGFR4, 87 nM. Besides, the IC50 in test [1] was 60 nM; in test [2], 33 nM.

Regarding `Cc1cnc(Nc2ccc(N=S(C)(C)=O)c(Cl)c2)nc1-c1c[nH]c2ccccc12` [Example 25, N-[3-chloro-4-[[dimethyl(oxo)-λ^6-sulfanylidene]amino]phenyl]-4-(1H-indol-3-yl)-5-methyl-pyrimidin-2-amine], the Kd at FGFR1 came to 7 nM; at FGFR2, 9 nM; at FGFR3, 13 nM; at FGFR3 (V555M), 2 nM; on FGFR4 it was 89 nM. Also, the values for the IC50 in test [1] and in test [2] were 117 nM and 63 nM, respectively.

Regarding `COc1cc(N=S2(=O)CCN(C)CC2)ccc1Nc1ncc(Cl)c(-c2c[nH]c3ccccc23)n1` [Example 38, 5-Chloro-4-(1H-indol-3-yl)-N-[2-methoxy-4-[(4-methyl-1-oxo-1,4-thiazinan-1-ylidene)-amino]phenyl]pyrimidin-2-amine], the equilibrium dissociation constant (Kd) on FGFR1 was 25 nM; on FGFR2 it was 92 nM; on FGFR3, 34 nM; on FGFR3 (V555M) it was 3 nM; at FGFR4 it was 26 nM. For the same molecule, the values for the IC50 in test [1] and in test [2] were 130 nM and 119 nM, respectively.

With `Cc1cnc(Nc2ccc(N=S3(=O)CCN(C)CC3)cc2)nc1-c1c[nH]c2ccccc12` [Example 49, 4-(1H-Indol-3-yl)-5-methyl-N-[4-[(4-methyl-1-oxo-1,4-thiazinan-1-ylidene)amino]-phenyl]pyrimidin-2-amine], the Kd on FGFR1 was 8 nM; at FGFR2 it was 4 nM; at FGFR3 it was 8 nM; on FGFR3 (V555M), 1 nM; at FGFR4, 120 nM. The IC50 in test [1] turned out to be 189 nM; in test [2], 78 nM.

Consider `Cc1cnc(Nc2ccc(S(=N)(=O)C3CC3)cc2)nc1-c1c[nH]c2ccccc12` (stereo not drawn) [Example 51, N-[4-(Cyclopropyl-sulfonimidoyl)-phenyl]-4-(1H-indol-3-yl)-5-methyl-pyrimidin-2-amine], for which the Kd is 10 nM at FGFR1; 6 nM at FGFR2; 18 nM on FGFR3; 3 nM at FGFR3 (V555M); 130 nM on FGFR4. The IC50 in test [1] is 45 nM; in test [2] it was 48 nM.

With `CS(=N)(=O)c1ccc(Nc2ncc(Cl)c(-c3c[nH]c4ccccc34)n2)cc1` (stereo not drawn) [Example 52, 5-Chloro-4-(1H-indol-3-yl)-N-[4-(methylsulfonimidoyl)-phenyl]pyrimidin-2-amine], the Kd is 27 nM at FGFR1; 9 nM at FGFR2; 24 nM at FGFR3; 6 nM on FGFR3 (V555M); 390 nM at FGFR4. In addition, the IC50 was 83 nM in test [1] and 76 nM in test [2].

On to `N=S1(=O)CCN(c2ccc(Nc3ncc(Cl)c(-c4c[nH]c5ccccc45)n3)cc2)CC1` [Example 53, 5-Chloro-N-[4-(1-imino-1-oxo-1,4-thiazinan-4-yl)phenyl]-4-(1H-indol-3-yl)pyrimidin-2-amine], for which the Kd was found to be 5 nM at FGFR1; 3 nM at FGFR2; 11 nM on FGFR3; 1 nM at FGFR3 (V555M); 74 nM at FGFR4. Moreover, the IC50 is 31 nM in test [1] and 22 nM in test [2].

As for `Cc1cnc(Nc2ccc(N3CCS(=N)(=O)CC3)cc2)nc1-c1c[nH]c2ccccc12` [Example 54, N-[4-(1-Imino-1-oxo-1,4-thiazinan-4-yl)phenyl]-4-(1H-indol-3-yl)-5-methyl-pyrimidin-2-amine], the Kd was found to be 10 nM on FGFR1; 7 nM on FGFR2; 13 nM at FGFR3; 2 nM on FGFR3 (V555M); 100 nM at FGFR4. Moreover, the figures for the IC50 in test [1] and in test [2] were 44 nM and 33 nM, respectively.

`CN1CCS(=O)(=Nc2ccc(Nc3ncc(Cl)c(-c4c[nH]c5ccccc45)n3)cc2)CC1` [Example 55, 5-Chloro-4-(1H-indol-3-yl)-N-[4-[(4-methyl-1-oxo-1,4-thiazinan-l-ylidene)amino]-phenyl]pyrimidin-2-amine]: the Kd on FGFR1 stood at 13 nM; at FGFR2, 6 nM; at FGFR3 it was 23 nM; on FGFR3 (V555M), 2 nM; on FGFR4, 110 nM. Moreover, the IC50 is 40 nM in test [1] and 49 nM in test [2].

On to `CN(C)C/C=C/C(=O)Nc1ccc2c(ccn2-c2nc(Nc3ccc(N=S(C)(C)=O)cc3)ncc2Cl)c1` [Example 67, (E)-N-[1-[5-Chloro-2-[4-[[dimethyl(oxo)-λ^6-sulfanylidene]amino]anilino]-pyrimidin-4-yl]indol-5-yl]-4-(dimethylamino)but-2-enamide], for which the Kd on FGFR1 is 130 nM; on FGFR2, 120 nM; on FGFR3, 62 nM; on FGFR3 (V555M), 9.8 nM; at FGFR4, 510 nM. In addition, the IC50 in test [1] was determined as 1450 nM; in test [2], 421 nM.

As for `C=CC(=O)Nc1ccc2c(ccn2-c2nc(Nc3ccc(N=S4(=O)CCN(C)CC4)cc3)ncc2Cl)c1` [Example 69, N-[1-[5-Chloro-2-[4-[(4-methyl-1-oxo-1,4-thiazinan-1-ylidene)amino]anilino]pyrimidin-4-yl]indol-5-yl]prop-2-enamide], the Kd was found to be 33 nM on FGFR1; 28 nM on FGFR2; 14 nM on FGFR3; 3.8 nM on FGFR3 (V555M); 160 nM at FGFR4. The IC50 in test [1] is 14 nM; in test [2], 82 nM.

Consider `C=CC(=O)Nc1ccc2c(ccn2-c2nc(Nc3ccc(S(C)(=N)=O)cc3)ncc2C)c1` (stereo not drawn) [Example 74, N-[1-[5-Methyl-2-[4-(methylsulfonimidoyl)anilino]-pyrimidin-4-yl]indol-5-yl]prop-2-enamide], for which the Kd is 140 nM at FGFR1; 77 nM on FGFR2; 41 nM on FGFR3; 20 nM on FGFR3 (V555M); 560 nM at FGFR4. Besides, the results for the IC50 in test [1] and in test [2] were 9 nM and 713 nM, respectively.

Regarding `C=CC(=O)Nc1ccc2c(-c3nc(Nc4ccc(S(C)(=N)=O)cc4)ncc3Cl)c[nH]c2c1` (stereo not drawn) [Example 89, N-[3-[5-chloro-2-[4-(methylsulfonimidoyl)anilino]pyrimidin-4-yl]-1H-indol-6-yl]prop-2-enamide], the Kd at FGFR1 was 76 nM; at FGFR2 it was 50 nM; on FGFR3 it was 70 nM; at FGFR3 (V555M) it was 7.5 nM; on FGFR4, 510 nM.
